The values below come from patent publication US20090118282A1, “Compounds and methods for treatment of amyloid-beta-peptide related disorders” (priority 2005, published 2009).

Broadly, the IC50 is the concentration needed to halve the response being measured. Low readings indicate higher potency, high ones lower potency.

Structures can show the parent of a compound that is named as a salt.

The test system of this experiment is Aβ 40 production in HEK-293 cells overexpressing swAPP751. Put plainly: Inhibition of Aβ 40 production in HEK-293 cells overexpressing swAPP751 (sandwich ELISA). The following applies: Homo sapiens, HEK293, 7 hours incubation. It counts as cell-based. The method, then:
An exemplary assay for the analysis of inhibition of beta-secretase activity utilizes the human embryonic kidney cell line HEK-293 (ATCC Accession No. CRL-1573) stably transfected with APP751 containing the naturally occurring double mutation […] to Asn651Leu652 (numbered for APP751), commonly called the “Swedish mutation” and shown to overproduce Aβ 40 and Aβ 42 (Citron et. al., 1992, Nature 360:672-674). The cells were plated in 10 cm plates and in Dulbecco's Modified Eagle's medium (DMEM, Sigma D-6546) containing 10% fetal bovine serum. After cells are established (3 days post plating), cells are incubated in the presence/absence of the inhibitory compound (diluted in DMSO) at the desired concentration, generally from 0.2 to 20 μM, and with a final concentration of DMSO of 0.1%. Cells were incubated for 7 hours in the presence of phosphoramidon (1 μM) (Sigma). Media and cell lysates were collected, centrifuged, normalized to total protein and assayed for Aβ 40 and Aβ 42 by sandwich ELISA according to the manufacturer's instructions (Biosource International). For Aβ 42 detection, samples are concentrated on YM3 Microcon columns (Millipore). […] Aβ levels are determined by the difference between the Aβ values for the compound treatment and baseline periods. Dose response curves are plotted as percent inhibition versus compound concentration.
(In general: In an ELISA, binding on a coated surface is turned into a signal by an enzyme label.)

Compound `FC(F)(F)c1ccc2c(SCCCCCOc3ccc(CN4CCNCC4)cc3)ccnc2c1` [Compound 1, 4-(5-(4-((piperazin-1-yl)methyl)phenoxy)pentylthio)-7-(trifluoromethyl)quinoline trihydrochloride] came in with an IC50 of 11.6 µM.
For the compound `CCN(CC)C(=O)N1CCN(Cc2ccc(OCCCCCSc3ccnc4cc(C(F)(F)F)ccc34)cc2)CC1` [Compound 2, 4-((4-(5-(7-(trifluoromethyl)quinolin-4-ylthio)pentyloxy)phenyl)methyl)-N,N-diethylpiperazine-1-carboxamide dihydrochloride], inhibition was half-maximal at 2.4 µM (IC50). This IC50 lies about 4.8-fold lower than the previous one.
With `CC(C)(C)C(=O)N1CCN(Cc2ccc(OCCCCCSc3ccnc4cc(C(F)(F)F)ccc34)cc2)CC1` [Compound 3, 1-(4-((4-(5-(7-(trifluoromethyl)quinolin-4-ylthio)pentyloxy)phenyl)methyl)piperazin-1-yl)-2,2-dimethylpropan-1-one dihydrochloride] the figure was 1.9 µM; with `FC(F)(F)c1ccc2c(SCCCCCOc3ccc(CN4CCCCC4)cc3)ccnc2c1` [Compound 5, 4-(5-(4-((piperidin-1-yl)methyl)phenoxy)pentylthio)-7-(trifluoromethyl)quinoline dihydrochloride], 5.16 µM; with `FC(F)(F)c1ccc2c(SCCCCCOc3ccc(CN4CCOCC4)cc3)ccnc2c1` [Compound 8, 4-(5-(4-(morpholinomethyl)phenoxy)pentylthio)-7-(trifluoromethyl)quinoline dihydrochloride], 5.13 µM.
In the case of `FC(F)(F)c1ccc2c(SCCCCCOc3ccc(CN4CCCCC4)cc3Cl)ccnc2c1` [Compound 10, 4-(5-(2-Chloro-4-((piperidin-1-yl)methyl)phenoxy)pentylthio)-7-(trifluoromethyl)quinoline dihydrochloride], the half-maximal inhibitory concentration (IC50) is 8.5 µM.
In turn, `O=[N+]([O-])c1cc(CN2CCCCC2)ccc1OCCCCCSc1ccnc2cc(C(F)(F)F)ccc12` [Compound 11, 4-(5-(2-nitro-4-((piperidin-1-yl)methyl)phenoxy)pentylthio)-7-(trifluoromethyl)quinoline dihydrochloride] yielded a concentration for half-maximal inhibition (IC50) of 2.45 µM.
As for `OCc1ccc(OCCCCCSc2ccnc3cc(C(F)(F)F)ccc23)cc1` [Compound 12, (4-(5-(7-(trifluoromethyl)quinolin-4-ylthio)pentyloxy)phenyl)methanol hydrochloride], the figure is 7.3 µM; as for `Nc1cc(CN2CCCCC2)ccc1OCCCCCSc1ccnc2cc(C(F)(F)F)ccc12` [Compound 13, 2-(5-(7-(Trifluoromethyl)quinolin-4-ylthio)pentyloxy)-5-((piperidin-1-yl)methyl)benzenamine trihydrochloride], 8.26 µM; as for `CCOC(=O)[C@H](Cc1ccc(OCCCCCSc2ccnc3cc(C(F)(F)F)ccc23)cc1)NC(C)=O` [Compound 14, (S)-ethyl 3-(4-(5-(7-(trifluoromethyl)quinolin-4-ylthio)pentyloxy)phenyl)-2-acetamidopropanoate hydrochloride], 0.72 µM.
`CCn1ncc2c(OCCCCCSc3ccnc4cc(C(F)(F)F)ccc34)ccnc21` [Compound 19, 4-(5-(1-Ethyl-1H-pyrazolo[3,4-b]pyridin-4-yloxy)pentylthio)-7-(trifluoromethyl)quinoline dihydrochloride]: the midpoint of inhibition, the IC50, lay at 15.5 µM.
With `COc1cc(CN2CCOCC2)ccc1OCCCCCOc1ccnc2cc(Cl)ccc12` [Compound 22, 4-(5-(2-Methoxy-4-(morpholinomethyl)phenoxy)pentyloxy)-7-chloroquinoline dihydrochloride] the figure was 9.3 µM; with `Clc1ccc2c(OCCCCCOc3ccc(CN4CCOCC4)cc3)ccnc2c1` [Compound 23, 4-(5-(4-(morpholinomethyl)phenoxy)pentyloxy)-7-chloroquinoline dihydrochloride], 2.5 µM.
On to `COc1cc(CN2CCOCC2)ccc1OCCCCCSc1ccnc2cc(C(F)(F)F)ccc12` [Compound 24, 4-(5-(2-methoxy-4-(morpholinomethyl)phenoxy)pentylthio)-7-(trifluoromethyl)quinoline dihydrochloride], for which the IC50 was found to be 9.9 µM.
